Measured values from ChEMBL document CHEMBL1158334, “Two new chymotrypsin inhibitors isolated from the Cyanobacterium Microcystis aeruginosa NIES-88” (J Nat Prod, 2005).

Experiments:
[1] = Inhibition of chymotrypsin
[2] = Inhibition of trypsin

Row | IC50 [1] | IC50 [2] | SMILES
1 | 9 µM | > 100 µM | CCCC(=O)N[C@@H](Cc1ccc(O)cc1)C(=O)N[C@@H](CCC(=O)N[C@@H]1C(=O)N[C@@H](C[C@H]2C=C[C@H](O)CC2)C(=O)N[C@H]2CC[C@@H](O)N(C2=O)[C@@H](C(C)C)C(=O)N(C)[C@@H](Cc2ccccc2)C(=O)N[C@@H]([C@@H](C)CC)C(=O)O[C@@H]1C)C(=O)O [MICROPEPTIN 88 D]
2 | 3.4 µM | > 100 µM | CCCC(=O)N[C@@H](Cc1ccc(O)cc1)C(=O)N[C@@H](CCC(=O)N[C@@H]1C(=O)N[C@@H](Cc2ccc(O)cc2)C(=O)N[C@H]2CC[C@@H](O)N(C2=O)[C@@H](C(C)C)C(=O)N(C)[C@@H](Cc2ccccc2)C(=O)N[C@@H]([C@@H](C)CC)C(=O)O[C@@H]1C)C(=O)OC [MICROPEPTIN 88 F]
3 | 1.3 µM | > 100 µM | CC[C@H](C)[C@@H]1NC(=O)[C@H](Cc2ccccc2)N(C)C(=O)[C@H](C(C)C)N2C(=O)[C@H](CC[C@H]2O)NC(=O)[C@H](Cc2ccc(O)cc2)NC(=O)[C@@H](NC(=O)CC[C@H](NC(=O)[C@H](Cc2ccc(O)cc2)NC(C)=O)C(=O)O)[C@@H](C)OC1=O [MICROPEPTIN 88 Y]
4 | > 100 µM | 0.02 µM | CC(C)[C@@H]1NC(=O)[C@H](Cc2ccc(O)cc2)N(C)C(=O)[C@H](Cc2ccccc2)N2C(=O)[C@H](CC[C@H]2O)NC(=O)[C@H](CCCNC(=N)N)NC(=O)[C@@H](NC(=O)[C@@H](O)COS(=O)(=O)O)[C@@H](C)OC1=O [MICROPEPTIN 90]
5 | > 100 µM | 0.07 µM | CCCCCCCC(=O)N[C@@H](CCC(=O)O)C(=O)N[C@@H]1C(=O)N[C@@H](CCCCN)C(=O)N[C@H]2CC[C@@H](O)N(C2=O)[C@@H](CC(C)C)C(=O)N(C)[C@@H](Cc2ccc(O)cc2)C(=O)N[C@@H](C(C)C)C(=O)O[C@@H]1C [MICROPEPTIN A]
6 | > 100 µM | 8.5 µM | CCCCCC(=O)N[C@@H](CC(=O)O)C(=O)N[C@@H]1C(=O)N[C@@H](CCCCN)C(=O)N[C@H]2CC[C@@H](O)N(C2=O)[C@@H]([C@@H](C)CC)C(=O)N(C)[C@@H](Cc2ccc(O)cc2)C(=O)N[C@@H](C(C)C)C(=O)O[C@@H]1C [MICROPEPTIN SD944]
7 | > 100 µM | 4 µM | CCCCCC(=O)N[C@@H](CC(=O)O)C(=O)N[C@@H]1C(=O)N[C@@H](CCCNC(=N)N)C(=O)N[C@H]2CC[C@@H](O)N(C2=O)[C@@H]([C@@H](C)CC)C(=O)N(C)[C@@H](CC(=O)c2ccccc2N)C(=O)N[C@@H](C(C)C)C(=O)O[C@@H]1C [MICROPEPTIN SD999]
8 | 3.2 µM | > 100 µM | CCCCCC(=O)N[C@@H](CC(=O)O)C(=O)N[C@@H]1C(=O)N[C@@H](Cc2ccc(O)cc2)C(=O)N[C@H]2CC[C@@H](O)N(C2=O)[C@@H]([C@@H](C)CC)C(=O)N(C)[C@@H](Cc2c[nH]c3ccccc23)C(=O)N[C@@H](C(C)C)C(=O)O[C@@H]1C [MICROPEPTIN SD1002]
9 | > 100 µM | > 100 µM | CC[C@H](C)[C@H](NC(=O)[C@H](O)Cc1ccc(O)cc1)C(=O)N[C@@H](CCO)C(=O)N[C@@H]1C(=O)N[C@@H](CCO)C(=O)N[C@H]2CC[C@@H](O)N(C2=O)[C@@H](Cc2ccccc2)C(=O)N(C)[C@@H](Cc2ccc(O)cc2)C(=O)N[C@@H](C(C)C)C(=O)O[C@@H]1C [NOSTOCYCLIN]
10 | 1.9 µM | > 100 µM | CC[C@H](C)[C@@H]1NC(=O)[C@H](Cc2ccc(OC)cc2)N(C)C(=O)[C@H]([C@@H](C)CC)N2C(=O)[C@H](CC[C@H]2O)NC(=O)[C@H](CCc2ccc(O)cc2)NC(=O)[C@@H](NC(=O)[C@H](CCc2ccc(O)cc2)NC(=O)[C@@H](COS(=O)(=O)O)OC)[C@@H](C)OC1=O [OSCILLAPEPTIN]

More lines, now with the values behind:

Row | SMILES | IC50 [1] | IC50 [2]
11 | CC(C)CC(NC(=O)[C@H](O)COS(=O)(=O)O)C(=O)N[C@@H]1C(=O)N[C@@H](CCCNC(=N)N)C(=O)N[C@H]2CC[C@@H](O)N(C2=O)[C@@H](CC(C)C)C(=O)N(C)[C@@H](Cc2ccc(O)cc2)C(=O)N[C@@H](C(C)C)C(=O)O[C@@H]1C (single isomer, unassigned) | > 100 µM | 0.001 µM
12 | CCCC(=O)N[C@@H](Cc1ccc(O)cc1)C(=O)N[C@@H](CCC(=O)N[C@@H]1C(=O)N[C@@H](CCC(=O)O)C(=O)N[C@H]2CC[C@@H](O)N(C2=O)[C@@H](C(C)C)C(=O)N(C)[C@@H](Cc2ccccc2)C(=O)N[C@@H]([C@@H](C)CC)C(=O)O[C@@H]1C)C(=O)O [MICROPEPTIN 88 B] | > 100 µM | > 100 µM
13 | CCCC(=O)N[C@@H](Cc1ccc(O)cc1)C(=O)N[C@@H](CCC(=O)N[C@@H]1C(=O)N[C@@H](Cc2ccc(O)cc2)C(=O)N[C@H]2CC[C@@H](O)N(C2=O)[C@@H](C(C)C)C(=O)N(C)[C@@H](Cc2ccccc2)C(=O)N[C@@H]([C@@H](C)CC)C(=O)O[C@@H]1C)C(=O)O [MICROPEPTIN 88 C] | 4.6 µM | > 100 µM
14 | CCCC(=O)N[C@@H](Cc1ccc(O)cc1)C(=O)N[C@@H](CCC(=O)N[C@@H]1C(=O)N[C@@H](CC(C)C)C(=O)N[C@H]2CC[C@@H](O)N(C2=O)[C@@H](C(C)C)C(=O)N(C)[C@@H](Cc2ccccc2)C(=O)N[C@@H]([C@@H](C)CC)C(=O)O[C@@H]1C)C(=O)O [MICROPEPTIN 88 E] | 5 µM | > 100 µM
15 | CCCCCC(=O)N[C@@H](CC(=O)O)C(=O)N[C@@H]1C(=O)N[C@@H](Cc2ccc(O)cc2)C(=O)N[C@H]2CC[C@@H](O)N(C2=O)[C@@H]([C@@H](C)CC)C(=O)N(C)[C@@H](Cc2ccc(O)cc2)C(=O)N[C@@H](C(C)C)C(=O)O[C@@H]1C [MICROPEPTIN SD979] | 2.5 µM | > 100 µM
16 | CC[C@H](C)[C@@H]1NC(=O)[C@H](Cc2ccc(O)cc2)N(C)C(=O)[C@H](Cc2ccccc2)N2C(=O)[C@H](CC[C@H]2O)NC(=O)[C@H](Cc2ccccc2)NC(=O)[C@@H](NC(=O)[C@@H](O)COP(=O)(O)O)[C@@H](C)OC1=O [MICROPEPTIN T 20] | 2500 µM | > 100 µM
17 | CC[C@H](C)[C@@H]1NC(=O)[C@H](Cc2ccc(O)cc2)N(C)C(=O)[C@H]([C@H](C)O)N2C(=O)[C@H](CC[C@H]2O)NC(=O)[C@H](CC(C)C)NC(=O)[C@@H](NC(=O)[C@H](CCC(N)=O)NC(=O)[C@H](CCc2ccc(O)cc2)NC(=O)[C@H](O)CO)[C@@H](C)OC1=O [OSCILLAPEPTIN G] | 4 µM | > 100 µM
